Data reported in patent US5770688A, “Method and composition for the treatment of mammalian HIV infection” (GSF-Forschungszentrum fur Umwelt und Gesundheit GmbH, priority 1989, dated 1998).

How the values were obtained:
[1] = test system: KE37-1 (uninfected) cells; test: MTT test, growth of non-infected cells; type: cell-based; conditions: KE37-1, seven days incubation; 10080 min
Experimental: The KE37-1 (uninfected) and KE37-1/111β (infected) cell lines discussed below are commercially available from the Dr. Robert Gallows Laboratory of the NIH in the United States of America and grown in a medium of RPMI 1640 (GIBCO) and further supplemented with 10% fetal calf serum which contained approximately 100 units of penicillin, 100 μg streptomycin, and approximately 0.25 μg fungizone (Amphotericin B) per milliliter. The human mesenchymal cell lines LC5 and LC5-HIV, discussed below, are deposited with the Collection De L'Institut Pasteur of Paris, France on Mar. 9, 1989 and given the accession numbers I-842 and I-843, respectively. The LC5 and LC5-HIV cell lines were grown in a medium of RPMI 1640 and supplemented with 10% fetal calf serum.
Referring more particularly to FIGS. 1-4, melittin (Seq. ID NO:1) and its specified analogues were tested for their effect on HIV-infected T-lymphoma cells. In this regard the following cell lines were employed in the testing: KE37-1 (uninfected) and KE37-1/111S (infected with HTLV-111β). These infected cells were incubated for a period of seven days under test conditions at a temperature of 37° C. and in the presence of 5% CO2. […] The optical density (OD) of the solution was determined at=600 nm. […]

[2] = test system: feline immunodeficiency virus (FIV); test: Example 3: FIV replication in naturally infected cats, quantitative FIV-PCR; type: in vivo
Experimental: To further investigate the effects of melittin (Seq. ID NO:1) on virus replication in retroviral infected cells or the inhibition of retroviral infected cell growth, a series of experiments were conducted utilizing cats which were naturally infected with the feline immunodeficiency virus (FIV). FIV is in its genomic and viral structure, in many respects, very similar to the human immunodeficiency virus (HIV). Therefore, it is widely regarded as similar to HIV, that is, it is a member of the Lentivirus subfamily, of the retrovirus family. Further, it has been determined that experimentally and naturally infected cats having FIV, display very similar disease characteristics such as immunedysfunction or other neurological disorders which can be taken as a relevant model for HIV infection in humans. This is discussed in greater detail in the article authored by Egberink et. al. "Suppression of feline immuno-deficiency virus infection in vivo by 9-(2-phosphonomethoxyethyl)adenine," Proc. Natl. Acad. Sci. 87, 3087-3091 (1990).
In the following series of experiments, two naturally FIV infected cats (M and G) were used. These particular cats were kept for more than one year under constant observation in the Clinic for Internal Medicine at the Veterinary School in Munich, Germany before the onset of melittin (Seq. ID NO:1) treatment. In each cat, FIV infection had been confirmed by detecting an antibody ELISA. In this regard, a test marketed under the tradename PetChek® and which is available from the same company in Portland, Maine was employed. As best seen in FIG. 53. The antibody titer against FIV in both cats was approximately 1:50. As a general matter, the overall physical condition of both cats was good during the observation period. Further and during the experiment, cat M developed shortly before melittin treatment a pneumonitis which was not treated in a conventional fashion. The individual body weights of each cat at the beginning of melittin treatment was 4 kilograms and 2.2 kilograms for cats M and G, respectively.
During the experiment it was determined that detectable blood serum levels of melittin (Seq. ID NO:1) of about 5 ng/ml could be detected following an injection of melittin equal to […] a few minutes after injection. […] In vitro data has shown that melittin, after this time interval, is found within the cells where it can be detected in tact for more than 48 hours. The LD50 (lethal dose where 50% of the animals perish) for melittin is not known for cats. […] The quantitative effect of melittin on FIV replication was determined quantitatively by utilizing FIV-PCR employing nested primers from the gag region. Quantification was based upon the determination of amplified product in identical samples which have been amplified after different cycle times. […]

[3] = in vitro persistence of melittin within cells

## Gly-Ile-Gly-Ala-Val-Leu-Lys-Val-Leu-Thr-Thr-Gly-Leu-Pro-Ala-Leu-Ile-Ser-Trp-Ile-Lys-Arg-Lys-Arg-Gln-Gln-Amide [melittin]
[1]
  concentration toxic to non-infected cells: above 5 μg per ml
[2]; FIV model, summary
  reduction in virus load: 50%
[2]; cat G, day 42 and following days
  amplification of FIV specific sequences, in words: a reduced amplification could already be seen in the sample from day 42 and the following days
[2]; cat M, days 56 and 116
  amplification of FIV specific sequences, late samples, in words: reduced amplification
  reduction of the virus load: ≥ 50%
[3]
  time detectable in tact within the cells: more than 48 hours
